A short description of this data set: Solubility of tegaserod in water. The settings on record: at 25° C. in water. Format: physicochemical. The procedure: A preferred agent is tegaserod, a 5-HT4 partial agonist of formula [drawing 1] or pharmaceutically acceptable salt form thereof, e.g. the hydrogen maleate (hereinafter “hml”) salt. Tegaserod has a solubility of about 0.02% at 25° C. in water and is acid sensitive.

On to `CCCCCNC(=N)NN=Cc1c[nH]c2ccc(OC)cc12` [Tegaserod, 3-(5-methoxy-1H-Indol-3-yl-methylene)-N-pentylcarbazimidamide], for which the solubility entry is listed as “about 0.02%”.

For the origin of these results see patent US20050106236A1, “5-Ht4partial agonist pharmaceutical compositions” (priority 2001, published 2005).
